From patent US9428508B2, “2,4-diamino-6,7-dihydro-5H-pyrrolo[2,3]pyrimidine derivatives as FAK/Pyk2 inhibitors” (Centaurus BioPharma Co., Ltd., priority 2011, dated 2016)

Key:
FAK = FAK (Homo sapiens (Human), UniProt Q05397); experiment: Biochemical assay for FAK activity (LANCE TR-FRET, ULight-poly Glu,Ala,Tyr substrate); settings: GST-tagged FAK, 120 min reaction
Description: (§1) Biochemical Assay for FAK/Pyk2 Activity
(§2) GST-tagged FAK was purchased from Invitrogen (PV3832). GST-tagged PYK2 was purchased from Invitrogen (PV4567). The activity of FAK/PYK2 was measured by monitoring the phosphorylation of a fluorophore labeled ULight-poly Glu, Ala, Tyr (1:1:1) peptide substrate from Perkin Elmer (TRF0101) in the presence of ATP. The phosphorylated tyrosine residue was recognized by a LANCE Europium chelate labeled anti-phosphotyrosine (PY20) antibody from Perkin Elmer (AD0066). This brought the fluorophore and europium chelate in close proximity ([…]) that upon excitation at 320 nm by an Envision (PerkinElmer), energy can be transferred from the donor Europium chelate to the acceptor fluorophore. […] The strength of the signal was, therefore, directly proportional to the FAK/PYK2 activity.
(§3) To measure inhibitory activity of FAK/PYK2 inhibitors, compounds were first prepare as a 1 mM stock in 100% DMSO and 3-fold serial dilution was performed in a 96-well plate (Corning, 3897) to generate 12 different concentration of 100× stock. A 5 μl of 100× stock of each concentration was added to wells containing 95 μl of 1× reaction buffer (40 mM Tris, pH7.5, […], 1 mM DTT and 1 mM CHAPS) to generate 5× stock. Then 2 μl of 5× stock of each concentration was added to a 384 wells-OptiPlate (PerkinElmer, 6007299).
(§4) For FAK, 4 μl of 2.5 nM FAK, 1 ul of 8 μg/μl BSA and 1.5 μl of 666 nM ULight-poly Glu, Ala, Tyr (1:1:1) peptide substrate, prepared in above reaction buffer, were added to each well. The reaction was initiated by adding 1.5 μl of 33.3 μM ATP. The reaction was allowed to proceed for 120 min before being quenched with 5 μl of 40 mM EDTA stop buffer prepared in 1×LANCE detection buffer (PerkinElmer, CR97-100).
(§5) Upon quenching of the reaction, 5 μl of 8 nM anti-phosphotyrosine antibody was added to each well and incubated for 60 minutes. The plate was measured using an Envision (PerkinElmer) based on the theory mentioned above.

PYK2 = PYK2 (Homo sapiens (Human), UniProt Q14289); experiment: Biochemical assay for PYK2 activity (LANCE TR-FRET, ULight-poly Glu,Ala,Tyr substrate); settings: GST-tagged PYK2, 40 min reaction
PYK2, sequence (Q14289 whole entry): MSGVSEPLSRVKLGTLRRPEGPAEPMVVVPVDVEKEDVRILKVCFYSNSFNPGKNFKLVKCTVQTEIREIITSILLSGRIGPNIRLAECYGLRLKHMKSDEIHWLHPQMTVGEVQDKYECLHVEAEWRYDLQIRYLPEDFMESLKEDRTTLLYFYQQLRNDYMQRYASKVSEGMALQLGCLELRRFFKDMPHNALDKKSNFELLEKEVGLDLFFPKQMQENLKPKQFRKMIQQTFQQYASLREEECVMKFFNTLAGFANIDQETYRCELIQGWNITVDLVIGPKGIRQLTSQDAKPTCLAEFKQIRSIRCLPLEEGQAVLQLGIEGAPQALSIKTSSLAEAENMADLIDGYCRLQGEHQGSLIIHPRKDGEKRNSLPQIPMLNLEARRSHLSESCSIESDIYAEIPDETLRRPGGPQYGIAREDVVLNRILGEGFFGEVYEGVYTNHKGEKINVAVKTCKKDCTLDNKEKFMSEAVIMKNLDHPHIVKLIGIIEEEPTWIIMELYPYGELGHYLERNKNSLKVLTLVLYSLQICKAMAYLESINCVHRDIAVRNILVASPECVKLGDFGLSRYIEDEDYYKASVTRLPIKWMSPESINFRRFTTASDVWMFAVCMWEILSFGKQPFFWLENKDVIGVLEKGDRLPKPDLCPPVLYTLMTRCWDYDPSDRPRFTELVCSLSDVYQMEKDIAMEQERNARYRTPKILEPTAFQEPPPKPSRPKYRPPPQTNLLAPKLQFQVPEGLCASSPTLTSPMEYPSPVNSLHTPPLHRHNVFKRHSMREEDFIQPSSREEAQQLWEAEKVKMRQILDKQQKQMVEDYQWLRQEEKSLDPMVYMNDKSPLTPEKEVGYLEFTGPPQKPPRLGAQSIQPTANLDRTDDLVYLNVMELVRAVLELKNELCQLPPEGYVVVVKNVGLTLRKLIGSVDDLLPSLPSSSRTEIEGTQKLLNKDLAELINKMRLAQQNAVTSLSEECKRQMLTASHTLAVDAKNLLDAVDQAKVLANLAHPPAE
Description: as §1, §2, §3
as §4, with “PYK2, 5” for “FAK, 4”, “2” for “2.5”, “PYK2” for “FAK, 1 ul of 8 μg/μl BSA”, “46.6” for “33.3”, “40” for “120”
as §5

FAK, sequence (Q05397 whole entry): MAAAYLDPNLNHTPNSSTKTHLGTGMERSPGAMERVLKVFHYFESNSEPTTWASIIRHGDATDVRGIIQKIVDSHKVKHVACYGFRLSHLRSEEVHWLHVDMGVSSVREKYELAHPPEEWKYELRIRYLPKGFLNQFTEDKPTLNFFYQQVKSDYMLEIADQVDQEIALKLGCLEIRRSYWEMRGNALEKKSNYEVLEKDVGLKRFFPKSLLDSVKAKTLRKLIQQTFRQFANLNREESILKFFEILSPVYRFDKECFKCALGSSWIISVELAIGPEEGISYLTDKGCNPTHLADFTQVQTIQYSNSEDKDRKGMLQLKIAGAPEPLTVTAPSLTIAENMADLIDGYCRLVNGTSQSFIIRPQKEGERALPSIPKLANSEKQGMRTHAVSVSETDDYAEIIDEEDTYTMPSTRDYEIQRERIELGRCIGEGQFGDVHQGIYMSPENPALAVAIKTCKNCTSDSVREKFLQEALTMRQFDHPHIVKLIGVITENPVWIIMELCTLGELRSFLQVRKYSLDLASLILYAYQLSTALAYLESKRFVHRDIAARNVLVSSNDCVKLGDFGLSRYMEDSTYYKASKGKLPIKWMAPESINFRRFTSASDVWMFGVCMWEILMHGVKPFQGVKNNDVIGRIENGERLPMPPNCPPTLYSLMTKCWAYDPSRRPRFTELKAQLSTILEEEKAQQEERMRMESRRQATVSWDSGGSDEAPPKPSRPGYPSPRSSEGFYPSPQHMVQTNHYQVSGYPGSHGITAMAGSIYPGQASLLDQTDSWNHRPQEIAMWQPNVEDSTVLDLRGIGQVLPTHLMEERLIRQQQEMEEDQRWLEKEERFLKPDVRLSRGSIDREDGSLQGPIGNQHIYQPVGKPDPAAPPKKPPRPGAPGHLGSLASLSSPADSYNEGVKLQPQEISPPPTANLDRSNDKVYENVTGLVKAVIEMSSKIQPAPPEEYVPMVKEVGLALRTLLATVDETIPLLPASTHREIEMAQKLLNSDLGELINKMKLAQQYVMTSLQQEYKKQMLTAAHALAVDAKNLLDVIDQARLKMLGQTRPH

Structure (SMILES)	IC50 (FAK) [nM]	IC50 (PYK2) [nM]
COCCCNS(=O)(=O)c1ccccc1Nc1nc(Nc2ccc(N3CCOCC3)cc2OC)nc2c1CCN2 [Example 48, 2-(2-(2-methoxy-4-morpholinophenylamino)-6,7-dihydro-5H-pyrrolo[2,3-d]pyrimidin-4-ylamino)-N-(3-methoxypropyl)benzenesulfonamide]	< 100	< 100
CNC(=O)c1ccccc1Nc1nc(Nc2ccc(N3CCOCC3)c3c2OCCO3)nc2c1CCN2 [Example 16, N-methyl-2-(2-(8-morpholino-2,3-dihydrobenzo[b][1,4]dioxin-5-ylamino)-6,7-dihydro-5H-pyrrolo[2,3-d]pyrimidin-4-ylamino)benzamide]	< 500	< 200
COc1cc(N2CCOCC2)ccc1Nc1nc2c(c(Nc3ccccc3S(=O)(=O)Nc3ccccc3)n1)CCN2 [Example 51, 2-(2-(2-methoxy-4-morpholinophenylamino)-6,7-dihydro-5H-pyrrolo[2,3-d]pyrimidin-4-ylamino)-N-phenylbenzenesulfonamide]	< 200	< 500
COc1cc(N2CCCC2)ccc1Nc1nc2c(c(Nc3ccccc3S(=O)(=O)NC(C)C)n1)CCN2 [Example 67, N-isopropyl-2-(2-(2-methoxy-4-(pyrrolidin-1-yl)phenylamino)-6,7-dihydro-5H-pyrrolo[2,3-d]pyrimidin-4-ylamino)benzenesulfonamide]	< 50	< 100
CNS(=O)(=O)c1ccccc1Nc1nc(Nc2ccc(N3CCOCC3)cc2OC)nc2c1C(C)CN2 (racemic) [Example 25, (±)-2-(2-(2-methoxy-4-morpholinophenylamino)-5-methyl-6,7-dihydro-5H-pyrrolo[2,3-d]pyrimidin-4-ylamino)-N-methylbenzenesulfonamide]	< 50	< 20
CC(C)NS(=O)(=O)c1ccccc1Nc1nc(Nc2cccc(NS(C)(=O)=O)c2)nc2c1CCN2 [Example 73, N-isopropyl-2-(2-(3-(methylsulfonamido)phenylamino)-6,7-dihydro-5H-pyrrolo[2,3-d]pyrimidin-4-ylamino)benzenesulfonamide]	< 20	< 20
COc1cc(-n2cccn2)ccc1Nc1nc2c(c(Nc3ccccc3S(=O)(=O)NC(C)C)n1)CCN2 [Example 94, N-isopropyl-2-(2-(2-methoxy-4-(1H-pyrazol-1-yl)phenylamino)-6,7-dihydro-5H-pyrrolo[2,3-d]pyrimidin-4-ylamino)benzenesulfonamide]	< 50	< 200
COc1cc(N2CCOCC2)ccc1Nc1nc2c(c(Nc3ccc(F)c(F)c3)n1)C(C)CN2 (racemic) [Example 34, (±)-N^4-(3,4-difluorophenyl)-N^2-(2-methoxy-4-morpholinophenyl)-5-methyl-6,7-dihydro-5H-pyrrolo[2,3-d]pyrimidine-2,4-diamine]	> 1000	< 1000
COc1cc(N2CCOCC2)ccc1Nc1nc2c(c(Nc3ccccc3S(=O)(=O)C(C)C)n1)CCN2 [Example 100, N^4-(2-(isopropylsulfonyl)phenyl)-N^2-(2-methoxy-4-morpholinophenyl)-6,7-dihydro-5H-pyrrolo[2,3-d]pyrimidine-2,4-diamine]	< 20	< 50
COc1cc(N2CCCCC2)ccc1Nc1nc2c(c(Nc3ccccc3S(=O)(=O)NC(C)C)n1)CCN2 [Example 68, N-isopropyl-2-(2-(2-methoxy-4-(piperidin-1-yl)phenylamino)-6,7-dihydro-5H-pyrrolo[2,3-d]pyrimidin-4-ylamino)benzenesulfonamide]	< 50	< 200
COc1cc(N2CCOCC2)ccc1Nc1nc2c(c(Nc3cccc(C)n3)n1)CCN2 [Example 12, N^2-(2-methoxy-4-morpholinophenyl)-N^4-(6-methylpyridin-2-yl)-6,7-dihydro-5H-pyrrolo[2,3-d]pyrimidine-2,4-diamine]	< 100	< 100
CC(C)NS(=O)(=O)c1ccccc1Nc1nc(Nc2ccc(C(=O)N3CCOCC3)cc2)nc2c1CCN2 [Example 65, N-isopropyl-2-(2-(4-(morpholine-4-carbonyl)phenylamino)-6,7-dihydro-5H-pyrrolo[2,3-d]pyrimidin-4-ylamino)benzenesulfonamide]	< 20	< 20
CNC(=O)c1ccccc1Nc1nc(Nc2cccc3ccoc23)nc2c1CCN2 [Example 19, 2-(2-(benzofuran-7-ylamino)-6,7-dihydro-5H-pyrrolo[2,3-d]pyrimidin-4-ylamino)-N-methylbenzamide]	< 200	< 100
COc1cc(N2CCOCC2)ccc1Nc1nc2c(c(Nc3ccccc3S(=O)(=O)NC3CCC3)n1)C(C)CN2 (racemic) [Example 27, (±)-N-cyclobutyl-2-(2-(2-methoxy-4-morpholinophenylamino)-5-methyl-6,7-dihydro-5H-pyrrolo[2,3-d]pyrimidin-4-ylamino)benzenesulfonamide]	< 20	< 20
CC(=O)Nc1cccc(Nc2nc3c(c(Nc4ccccc4S(=O)(=O)NC(C)C)n2)CCN3)c1 [Example 75, N-(3-(4-(2-(N-isopropylsulfamoyl)phenylamino)-6,7-dihydro-5H-pyrrolo[2,3-d]pyrimidin-2-ylamino)phenyl)acetamide]	< 20	< 20

Now from value to compound:

IC50 (FAK) [nM]	IC50 (PYK2) [nM]	Structure (SMILES)
< 20	< 20	COc1cc(N2CCOCC2)ccc1Nc1nc2c(c(Nc3ccccc3S(=O)(=O)NC(C)C)n1)C1(CC1)CN2 [Example 138, N-isopropyl-2-(2′-(2-methoxy-4-morpholinophenylamino)-6′,7′-dihydrospiro[cyclopropane-1,5′-pyrrolo[2,3-d]pyrimidine]-4′-ylamino)benzenesulfonamide]
< 200	< 200	CNC(=O)c1ccccc1Nc1nc(Nc2ccc3c(ccn3CCCN3CCOCC3)c2)nc2c1C(C)(C)CN2 [Example 134, 2-(5,5-dimethyl-2-(1-(3-morpholinopropyl)-1H-indol-5-ylamino)-6,7-dihydro-5H-pyrrolo[2,3-d]pyrimidin-4-ylamino)-N-methylbenzamide]
< 20	< 20	COc1cc(N2CCOCC2)ccc1Nc1nc2c(c(Nc3ccccc3S(=O)(=O)N(C)C)n1)C1(CC1)CN2 [Example 151, 2-(2′-(2-methoxy-4-morpholinophenylamino)-6′,7′-dihydrospiro[cyclopropane-1,5′-pyrrolo[2,3-d]pyrimidine]-4′-ylamino)-N,N-dimethylbenzenesulfonamide]
< 20	< 20	CCCNS(=O)(=O)c1ccccc1Nc1nc(Nc2ccc(N3CCOCC3)cc2OC)nc2c1C(C)(C)CN2 [Example 106, 2-(2-(2-methoxy-4-morpholinophenylamino)-5,5-dimethyl-6,7-dihydro-5H-pyrrolo[2,3-d]pyrimidin-4-ylamino)-N-propylbenzenesulfonamide]
< 20	< 20	CNC(=O)c1ccccc1Nc1nc(Nc2cccc3c2OCCO3)nc2c1C(C)(C)CN2 [Example 128, 2-(2-(2,3-dihydrobenzo[b][1,4]dioxin-5-ylamino)-5,5-dimethyl-6,7-dihydro-5H-pyrrolo[2,3-d]pyrimidin-4-ylamino)-N-methylbenzamide]
< 100	< 100	COc1cc(N2CCOCC2)ccc1Nc1nc2c(c(Nc3ccccc3S(=O)(=O)NC3CCCC3)n1)C1(CC1)CN2 [Example 145, N-cyclopentyl-2-(2′-(2-methoxy-4-morpholinophenylamino)-6′,7′-dihydrospiro[cyclopropane-1,5′-pyrrolo[2,3-d]pyrimidine]-4′-ylamino)benzenesulfonamide]
< 20	< 50	CNC(=O)c1ccccc1Nc1nc(Nc2ccc(N3CCOCC3)cc2OC)nc2c1[C@@H](C)CN2 [Example 102, (R)-2-(2-(2-methoxy-4-morpholinophenylamino)-5-methyl-6,7-dihydro-5H-pyrrolo[2,3-d]pyrimidin-4-ylamino)-N-methylbenzamide]
< 20	< 20	CNC(=O)c1ccccc1Nc1nc(Nc2cccc3ccoc23)nc2c1C(C)(C)CN2 [Example 131, 2-(2-(benzofuran-7-ylamino)-5,5-dimethyl-6,7-dihydro-5H-pyrrolo[2,3-d]pyrimidin-4-ylamino)-N-methylbenzamide]
